# Measurements taken from ChEMBL document CHEMBL5724914, “Linking interpersonal differences in gut microbiota composition and drug biotransformation activity” (2024).
# Assay: (§1) The drug is tested on Z-029 corresponding to rat gut metagenome with ENA study accession number: PRJEB37062 and ENA sample accession number: ERS12561828 for biotransformation under anaerobic condition. The drug concentrations were measured over 9 timepoints collected between 0 and 24 hours of incubation by liquid-chromatography-coupled mass spectrometry (LC–MS)
# Details: 2 µM
# Further: call rule not given here.
row,SMILES,Bacterial Biotransformation
1,COc1cc(C(=O)NCc2ccc(OCCN(C)C)cc2)cc(OC)c1OC [TRIMETHOBENZAMIDE],Compound NOT metabolized
2,COc1ccc(C(CN(C)C)C2(O)CCCCC2)cc1 (stereo not given) [VENLAFAXINE],Compound NOT metabolized

# Assay: as §1, with “Z-027” for “Z-029”, “to” for “to rat gut”, “ERS12561826” for “ERS12561828”
# Details: 2 µM
row,SMILES,Bacterial Biotransformation
1,COc1cc(C(=O)NCc2ccc(OCCN(C)C)cc2)cc(OC)c1OC [TRIMETHOBENZAMIDE],Compound NOT metabolized
2,COc1ccc(C(CN(C)C)C2(O)CCCCC2)cc1 (stereo not given) [VENLAFAXINE],Compound NOT metabolized

# Assay: as §1, with “on Z-024” for “on Z-029”, “to pig” for “to rat”, “number: ERS12561823” for “number: ERS12561828”
# Details: 2 µM
row,SMILES,Bacterial Biotransformation
1,COc1cc(C(=O)NCc2ccc(OCCN(C)C)cc2)cc(OC)c1OC [TRIMETHOBENZAMIDE],Compound NOT metabolized
2,COc1ccc(C(CN(C)C)C2(O)CCCCC2)cc1 (stereo not given) [VENLAFAXINE],Compound NOT metabolized

# Assay: as §1, with “on Z-016” for “on Z-029”, “to mouse” for “to rat”, “number: ERS12561815” for “number: ERS12561828”
# Details: 2 µM
row,SMILES,Bacterial Biotransformation
1,COc1cc(C(=O)NCc2ccc(OCCN(C)C)cc2)cc(OC)c1OC [TRIMETHOBENZAMIDE],Compound NOT metabolized
2,COc1ccc(C(CN(C)C)C2(O)CCCCC2)cc1 (stereo not given) [VENLAFAXINE],Compound NOT metabolized

# Assay: as §1, with “Z-012” for “Z-029”, “to” for “to rat gut”, “ERS12561812” for “ERS12561828”
# Details: 2 µM
row,SMILES,Bacterial Biotransformation
1,COc1cc(C(=O)NCc2ccc(OCCN(C)C)cc2)cc(OC)c1OC [TRIMETHOBENZAMIDE],Compound NOT metabolized
2,COc1ccc(C(CN(C)C)C2(O)CCCCC2)cc1 (stereo not given) [VENLAFAXINE],Compound NOT metabolized

# Assay: as §1, with “on Z-011” for “on Z-029”, “to mouse” for “to rat”, “number: ERS12561811” for “number: ERS12561828”
# Details: 2 µM
row,SMILES,Bacterial Biotransformation
1,COc1cc(C(=O)NCc2ccc(OCCN(C)C)cc2)cc(OC)c1OC [TRIMETHOBENZAMIDE],Compound NOT metabolized
2,COc1ccc(C(CN(C)C)C2(O)CCCCC2)cc1 (stereo not given) [VENLAFAXINE],Compound NOT metabolized

# Assay: as §1, with “on Z-002” for “on Z-029”, “to rabbit” for “to rat”, “number: ERS12561802” for “number: ERS12561828”
# Details: 2 µM
row,SMILES,Bacterial Biotransformation
1,COc1cc(C(=O)NCc2ccc(OCCN(C)C)cc2)cc(OC)c1OC [TRIMETHOBENZAMIDE],Compound NOT metabolized
2,COc1ccc(C(CN(C)C)C2(O)CCCCC2)cc1 (stereo not given) [VENLAFAXINE],Compound NOT metabolized

# Assay: as §1, with “on WLS-240” for “on Z-029”, “to human” for “to rat”, “number: ERS12561773” for “number: ERS12561828”
# Details: 2 µM
row,SMILES,Bacterial Biotransformation
1,COc1cc(C(=O)NCc2ccc(OCCN(C)C)cc2)cc(OC)c1OC [TRIMETHOBENZAMIDE],Compound NOT metabolized
2,COc1ccc(C(CN(C)C)C2(O)CCCCC2)cc1 (stereo not given) [VENLAFAXINE],Compound metabolized

# Assay: as §1, with “on WLS-098” for “on Z-029”, “to human” for “to rat”, “number: ERS12561754” for “number: ERS12561828”
# Details: 2 µM
row,SMILES,Bacterial Biotransformation
1,COc1cc(C(=O)NCc2ccc(OCCN(C)C)cc2)cc(OC)c1OC [TRIMETHOBENZAMIDE],Compound NOT metabolized
2,COc1ccc(C(CN(C)C)C2(O)CCCCC2)cc1 (stereo not given) [VENLAFAXINE],Compound NOT metabolized

# Assay: as §1, with “on WLS-069” for “on Z-029”, “to human” for “to rat”, “number: ERS12561748” for “number: ERS12561828”
# Details: 2 µM
row,SMILES,Bacterial Biotransformation
1,COc1cc(C(=O)NCc2ccc(OCCN(C)C)cc2)cc(OC)c1OC [TRIMETHOBENZAMIDE],Compound NOT metabolized
2,COc1ccc(C(CN(C)C)C2(O)CCCCC2)cc1 (stereo not given) [VENLAFAXINE],Compound NOT metabolized

# Assay: as §1, with “on WLS-038” for “on Z-029”, “to human” for “to rat”, “number: ERS12561745” for “number: ERS12561828”
# Details: 2 µM
row,SMILES,Bacterial Biotransformation
1,COc1cc(C(=O)NCc2ccc(OCCN(C)C)cc2)cc(OC)c1OC [TRIMETHOBENZAMIDE],Compound NOT metabolized
2,COc1ccc(C(CN(C)C)C2(O)CCCCC2)cc1 (stereo not given) [VENLAFAXINE],Compound NOT metabolized

# Details: human gut metagenome, 24 h, 2 µM
row,SMILES,Bacterial Biotransformation
1,COc1cc(C(=O)NCc2ccc(OCCN(C)C)cc2)cc(OC)c1OC [TRIMETHOBENZAMIDE],Compound NOT metabolized
2,COc1ccc(C(CN(C)C)C2(O)CCCCC2)cc1 (stereo not given) [VENLAFAXINE],Compound NOT metabolized

# Details: human gut metagenome, 24 h, 2 µM
# Remark: another data set of the same source
row,SMILES,Bacterial Biotransformation
1,COc1cc(C(=O)NCc2ccc(OCCN(C)C)cc2)cc(OC)c1OC [TRIMETHOBENZAMIDE],Compound NOT metabolized
2,COc1ccc(C(CN(C)C)C2(O)CCCCC2)cc1 (stereo not given) [VENLAFAXINE],Compound NOT metabolized

# Details: human gut metagenome, 24 h, 2 µM
# Remark: another data set of the same source
row,SMILES,Bacterial Biotransformation
1,COc1cc(C(=O)NCc2ccc(OCCN(C)C)cc2)cc(OC)c1OC [TRIMETHOBENZAMIDE],Compound NOT metabolized
2,COc1ccc(C(CN(C)C)C2(O)CCCCC2)cc1 (stereo not given) [VENLAFAXINE],Compound NOT metabolized

# Details: human gut metagenome, 24 h, 2 µM
# Remark: another data set of the same source
row,SMILES,Bacterial Biotransformation
1,COc1cc(C(=O)NCc2ccc(OCCN(C)C)cc2)cc(OC)c1OC [TRIMETHOBENZAMIDE],Compound NOT metabolized
2,COc1ccc(C(CN(C)C)C2(O)CCCCC2)cc1 (stereo not given) [VENLAFAXINE],Compound NOT metabolized

# Details: human gut metagenome, 24 h, 2 µM
# Remark: another data set of the same source
row,SMILES,Bacterial Biotransformation
1,COc1cc(C(=O)NCc2ccc(OCCN(C)C)cc2)cc(OC)c1OC [TRIMETHOBENZAMIDE],Compound NOT metabolized
2,COc1ccc(C(CN(C)C)C2(O)CCCCC2)cc1 (stereo not given) [VENLAFAXINE],Compound NOT metabolized

# Details: human gut metagenome, 24 h, 2 µM
# Remark: another data set of the same source
row,SMILES,Bacterial Biotransformation
1,COc1cc(C(=O)NCc2ccc(OCCN(C)C)cc2)cc(OC)c1OC [TRIMETHOBENZAMIDE],Compound NOT metabolized
2,COc1ccc(C(CN(C)C)C2(O)CCCCC2)cc1 (stereo not given) [VENLAFAXINE],Compound NOT metabolized

# Details: human gut metagenome, 24 h, 2 µM
# Remark: another data set of the same source
row,SMILES,Bacterial Biotransformation
1,COc1cc(C(=O)NCc2ccc(OCCN(C)C)cc2)cc(OC)c1OC [TRIMETHOBENZAMIDE],Compound NOT metabolized
2,COc1ccc(C(CN(C)C)C2(O)CCCCC2)cc1 (stereo not given) [VENLAFAXINE],Compound NOT metabolized

# Details: human gut metagenome, 24 h, 2 µM
# Remark: another data set of the same source
row,SMILES,Bacterial Biotransformation
1,COc1cc(C(=O)NCc2ccc(OCCN(C)C)cc2)cc(OC)c1OC [TRIMETHOBENZAMIDE],Compound NOT metabolized
2,COc1ccc(C(CN(C)C)C2(O)CCCCC2)cc1 (stereo not given) [VENLAFAXINE],Compound NOT metabolized

# Details: human gut metagenome, 24 h, 2 µM
# Remark: another data set of the same source
row,SMILES,Bacterial Biotransformation
1,COc1cc(C(=O)NCc2ccc(OCCN(C)C)cc2)cc(OC)c1OC [TRIMETHOBENZAMIDE],Compound NOT metabolized
2,COc1ccc(C(CN(C)C)C2(O)CCCCC2)cc1 (stereo not given) [VENLAFAXINE],Compound metabolized
